Measurements: PubChem BioAssay (NCI)
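Five concentrations, 48 hours, 96-well plates. At the TGI there is no net growth.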

Columns and labels:
Assay in all cases: NCI anticancer screen, dose series, 48 h
786-0 renal = system: 786-0 renal
A498 renal = system: A498 renal
A549 NSCLC = system: A549 NSCLC
ACHN renal = system: ACHN renal
CAKI-1 renal = system: CAKI-1 renal
CCRF-CEM leukemia = system: CCRF-CEM leukemia
COLO 205 colon = system: COLO 205 colon
DLD-1 colon = system: DLD-1 colon
DMS 114 small cell lung = system: DMS 114 small cell lung
DMS 273 small cell lung = system: DMS 273 small cell lung
EKVX NSCLC = system: EKVX NSCLC
HCC-2998 colon = system: HCC-2998 colon
HCT-116 colon = system: HCT-116 colon
HCT-15 colon = system: HCT-15 colon
HL-60(TB) leukemia = system: HL-60(TB) leukemia
HOP-18 NSCLC = system: HOP-18 NSCLC
HOP-62 NSCLC = system: HOP-62 NSCLC
HOP-92 NSCLC = system: HOP-92 NSCLC
HT29 colon = system: HT29 colon
IGROV1 ovarian = system: IGROV1 ovarian
K-562 leukemia = system: K-562 leukemia
KM12 colon = system: KM12 colon
KM20L2 colon = system: KM20L2 colon
LOX IMVI melanoma = system: LOX IMVI melanoma
LXFL 529 NSCLC = system: LXFL 529 NSCLC
M14 melanoma = system: M14 melanoma
M19-MEL melanoma = system: M19-MEL melanoma
MALME-3M melanoma = system: MALME-3M melanoma
MOLT-4 leukemia = system: MOLT-4 leukemia
NCI-H226 lung = system: NCI-H226 lung
NCI-H23 lung = system: NCI-H23 lung
NCI-H460 lung = system: NCI-H460 lung
OVCAR-3 ovarian = system: OVCAR-3 ovarian
OVCAR-4 ovarian = system: OVCAR-4 ovarian
OVCAR-5 ovarian = system: OVCAR-5 ovarian
OVCAR-8 ovarian = system: OVCAR-8 ovarian
RPMI-8226 leukemia = system: RPMI-8226 leukemia
RXF 393 renal = system: RXF 393 renal
RXF-631 renal = system: RXF-631 renal
SF-268 CNS = system: SF-268 CNS
SF-295 CNS = system: SF-295 CNS
SF-539 CNS = system: SF-539 CNS
SK-MEL-28 melanoma = system: SK-MEL-28 melanoma
SK-MEL-5 melanoma = system: SK-MEL-5 melanoma
SK-OV-3 ovarian = system: SK-OV-3 ovarian
SN12C renal = system: SN12C renal
SNB-19 CNS = system: SNB-19 CNS
SNB-75 CNS = system: SNB-75 CNS
SR leukemia = system: SR leukemia
SW-620 colon = system: SW-620 colon
TK-10 renal = system: TK-10 renal
U251 CNS = system: U251 CNS
UACC-257 melanoma = system: UACC-257 melanoma
UACC-62 melanoma = system: UACC-62 melanoma
UO-31 renal = system: UO-31 renal
XF 498 CNS = system: XF 498 CNS
NCI-H522 lung = system: NCI-H522 lung
SK-MEL-2 melanoma = system: SK-MEL-2 melanoma
SNB-78 CNS = system: SNB-78 CNS

Measured: TGI

CCCC(=O)c1c(NOC2OCC(OC(C)=O)C(OC(C)=O)C2OC(C)=O)nc(OC)n(C)c1=O (configuration not stated)
19.1 µM: CCRF-CEM leukemia
3.09 µM: HL-60(TB) leukemia
36 µM: K-562 leukemia
not listed: NCI-H522 lung | SK-MEL-2 melanoma | SNB-78 CNS
> 100 µM: all other assays above

Cc1nc2sccn2c1C(=O)N/N=C1\SCC(=O)N1C
not listed: A498 renal | M14 melanoma | OVCAR-4 ovarian | SNB-75 CNS | UO-31 renal | SNB-78 CNS
> 100 µM: all other assays above

O=[N+]([O-])c1ccc(-c2noc(-c3ccccc3)c2C2=NCCN2)cc1
90.8 µM: OVCAR-3 ovarian
not listed: A498 renal | DMS 114 small cell lung | DMS 273 small cell lung | HOP-92 NSCLC | NCI-H23 lung | SK-OV-3 ovarian | TK-10 renal
> 100 µM: all other assays above

CN1c2ccccc2NC(CC(=O)O)C2CC=CN21 (configuration not stated)
not listed: DLD-1 colon | HCC-2998 colon | HCT-116 colon | NCI-H226 lung | SR leukemia | SNB-78 CNS
> 100 µM: all other assays above

O=C(O)C1=CN=C(C(=O)O)NN1
not listed: A498 renal | DMS 273 small cell lung | HCC-2998 colon | LOX IMVI melanoma | OVCAR-5 ovarian | SNB-78 CNS
> 100 µM: all other assays above
